Assay results taken from patent publication US10533018B2, “Antimicrobial prochelators to target drug-resistant bacteria and methods of making and using the same” (Duke University, priority 2015, dated 2020).
pIC50: −log10 of the molar value. Where two headings read alike, the source gives them in different places.

Key:
+Bla K-12 E. coli = experiment: microbe, parasite or virus in culture; format: cell-based, Escherichia coli
From the text: (§1) Bacterial culture reagents including LB broth (Lennox), agar-agar, ampicillin, and ceftriaxone were purchased from Sigma Aldrich Corp. The Escherichia coli (E. coli) K12 strain HB101 and pGLO E. coli transformation kit purchased from Bio-Rad Laboratories Inc. HB101 was transformed with the bla gene via the pGLO plasmid. The bla gene encodes for a TEM-1 β-lactamase that imparts penicillin resistance to the mutant E. coli K-12 strain (+Bla). Strains E. coli UTI89, [27] pCOM-GFP-transformed E. coli UTI89 (pCOM-GFP), [28] and Methicillin-Resistant Staphylococcus aureus (MRSA) clone USA300 [29] have been previously described. The Extended-Spectrum β-Lactamase (ESBL) E. coli, Klebsiella pneumonia (Klebs), and Pseudomonas aeruginosa (Pseudo) strains were clinical isolates acquired deidentified from Duke Hospital and tested for antibiotic susceptibility in the Clinical Microbiology Laboratory using standard clinical susceptibility methods.
(§2) Cultures were incubated on LB (Lennox, Sigma) agar at 37° C. in ambient atmospheric composition. Before beginning an experiment, a single bacterial colony grown on LB agar was resuspended in 2 mL LB broth and incubated overnight to form a turbid cell suspension. The overnight culture was diluted 1:100 in LB and used immediately as the working culture. To assess the antibacterial activity of compounds, the working bacterial culture was aliquoted in a clear, flat-bottomed, 96-well polystyrene plate (Costar) and the compound of interest was added in 2-fold serial dilution from 500 to 1 μM. Plates were covered with a breathable sealing film (Aeroseal, Genesee Scientific) and incubated at 37° C. in ambient atmospheric composition with shaking at 200 rpm. Optical density at 600 nm was recorded after 4 h and 20 h for each well using a standard OD600 protocol with LB serving as the blank. The resulting dose-response curves were fit to a nonlinear regression in GraphPad Prism Version 6 to calculate the IC50 of DB4-51 in each strain.
(§3) The ability of DB4-162 to inhibit bacterial growth was assessed by a traditional broth microdilution method that assesses the turbidity of liquid cultures in the presence of varying concentrations of the compound. As described above for DB4-51, the antibacterial properties of the prochelator DB4-162 were assessed in non-pathogenic lab-strain HB101K-12 E. coli and compared to the pGLO-transfected mutant HB101K-12 E. coli that express β-lactamase. Clinically relevant pathogenic bacteria were also screened, including UTI89 E. coli, pCOM transfected UTI89 E. coli (pCOM), extended spectrum β-lactamase (ESBL) E. coli, methicillin-resistant Staphylococcus aureus (MRSA), and Klebsiella pneumonia (Klebs). In addition to being naturally resistant to many β-lactam antibiotics, MRSA can produce a number of β-lactamases. […] It should be noted that all of the bacteria tested are gram-negative except for gram-positive MRSA.
(§4) The goal of this screen was to calculate the IC50 of the prochelator in a series of pathogenic bacteria and compare these values to the IC50 of known antibiotics in those same strains to determine the relative effectiveness of DB4-162 against the drug-resistant and drug-susceptible bacteria in comparison to current antibiotic treatment options. Bacterial growth was monitored in LB broth at 37° C. in the presence and absence of DB4-162 for 20 hours. A concentration gradient of DB4-162 from 500 to 0 μM was used to screen all 7 strains of bacteria and the dose-response curves were fit to a […] to calculate the IC50 of DB4-162 in each strain. These IC50 values are an approximation of how effectively DB4-162 inhibits the growth of each bacterial strain in vitro.
(§5) IC50 values for ampicillin were calculated via broth microdilution in LB broth only. Values are listed as the mean followed by the 95% confidence interval about the mean. Mean and confidence intervals were calculated from a variable slope, nonlinear regression fit to the dose-response OD600 data. […]

pCOM E. coli = experiment: microbe, parasite or virus in culture; format: cell-based, Escherichia coli; conditions: for pIC50: Escherichia coli, pCOM E. coli
From the text: as §1, §2, §3, §4, §5

ESBL E. coli = experiment: microbe, parasite or virus in culture; format: cell-based, Escherichia coli; conditions: for pIC50: ESBL E. coli
From the text: as §1, §2, §3, §4, §5

−Bla K-12 E. coli = experiment: microbe, parasite or virus in culture; format: cell-based, Escherichia coli; conditions: −Bla K-12 E. coli
From the text: as §1, §2, §3, §4, §5

[1] = test system: Klebsiella pneumonia (Klebs); experiment: Broth microdilution growth inhibition (OD600); format: cell-based
From the text: as §1, §2, §3, §4, §5

[2] = test system: resistant E. coli HB101 K-12 transformed to express β-lactamase; experiment: microbe, parasite or virus in culture; format: cell-based, Escherichia coli; conditions: for pIC50: Escherichia coli
Protocol: In order to determine the antibiotic activity of DB4-51, a debilitated strain of Escherichia coli (HB101 K-12) was transformed with the pGLO plasmid from Bio-Rad in order to express β-lactamase. This transformation was confirmed by growing on a selective medium containing 100 μg/ml ampicillin in Lennox LB with 1.5% agar. A broth microdilution assay was employed to determine the relative activity of DB4-51 against susceptible (HB 101 K-12, no β-lactamase) and resistant (HB 101 K-12 transformed to express β-lactamase) E. coli. […] The bacterial growth was monitored by recording each well's absorbance at 600 nm (OD600.) The OD600 values of E. coli suspensions incubated with various compounds were compared in order to assess their activities.
FIG. 7: OD600 of susceptible and resistant K-12 E. coli cultures against DB4-51 and known antibiotics as a function of concentration. Ampicillin has a penicillin core and cephalexin has a cephalosporin core. Cultures were grown in LB broth at 37° C. while shaking at 200 rpm for 18 hours and then diluted to an OD600 of 0.005 before adding the compounds. […]
Table 1: Calculated IC50 values for DB4-51, cephalexin, ampicillin, and pyrithione. These values were derived by fitting the data to a log dose-response curve and reporting the concentration corresponding to half the maximum OD600 value for each compound.

[3] = Escherichia coli, +Bla K-12 E. coli, LB + 10 μM CuCl2
[4] = Escherichia coli, +Bla K-12 E. coli, LB + 500 μM BCS
[5] = Escherichia coli, +Bla K-12 E. coli, LB broth
[6] = Escherichia coli, LB + 500 μM BCS
[7] = Escherichia coli, LB + 10 μM CuCl2, read-out: IC50
[8] = Escherichia coli, LB + 500 μM BCS, read-out: IC50
[9] = Klebsiella pneumoniae, LB + 10 μM CuCl2
[10] = Klebsiella pneumoniae, LB + 500 μM BCS
[11] = Klebsiella pneumoniae, LB broth

SMILES | pIC50 (+Bla K-12 E. coli; [3]) | pIC50 (+Bla K-12 E. coli; [4]) | pIC50 (+Bla K-12 E. coli; [5]) | pIC50 (pCOM E. coli; LB + 10 μM CuCl2) | pIC50 (pCOM E. coli; LB + 500 μM BCS) | pIC50 (pCOM E. coli; LB broth) | pIC50 (ESBL E. coli; [6]) | pIC50 (ESBL E. coli; Escherichia coli, LB broth) | pIC50 (−Bla K-12 E. coli; [7]) | pIC50 (−Bla K-12 E. coli; [8]) | pIC50 [1, 9] | pIC50 [1, 10] | pIC50 [1, 11] | pIC50 [2] | also measured
Cc1csc(=S)n1OCC1=C(C(=O)O)N2C(=O)[C@@H](NC(=O)Cc3ccccc3)[C@H]2SC1 [DB4-162, (6R,7R)-3-(((4-methyl-2-thioxothiazol-3(2H)-yl)oxy)methyl)-8-oxo-7-(2-phenylacetamido)-5-thia-1-azabicyclo[4.2.0]oct-2-ene-2-carboxylic acid] | 3.83 | 3.75 | 3.84 | 4.03 | 3.77 | 3.95 | 4.30 | 4.66 | 4.41 | 4.27 | 4.66 | 4.62 | 4.55 |  | pIC50 (ESBL E. coli; Escherichia coli, LB + 10 μM CuCl2): 4.68; IC50 in ESBL E. coli lower than in −Bla K-12 E. coli (ESBL E. coli; LB broth): 90%; pIC50 (−Bla K-12 E. coli; Escherichia coli, LB broth, read-out: IC50): 3.64
[O-][n+]1ccccc1S [PT, 2-mercaptopyridine N-oxide] |  | 7.72 | 8.22 | 8.40 | 8.15 | 8.70 |  | 8.30 |  |  | 8.05 | 7.72 | 7.96 | > 4.74 | 
CC1(C)S[C@@H]2[C@H](NC(=O)[C@H](N)c3ccccc3)C(=O)N2[C@H]1C(=O)O [Ampicillin] | < 3.60 | < 3.60 |  |  |  |  |  |  |  |  |  |  |  | < 3.25 | pIC50 (+Bla K-12 E. coli; +Bla K-12 E. coli, LB broth): < 3.60; pIC50 (ESBL E. coli; LB broth): < 3.60; pIC50 (−Bla K-12 E. coli; LB broth, listed as ampicillin, read-out: IC50): 5.10; pIC50 (−Bla K-12 E. coli; LB broth, read-out: IC50): 8.10; pIC50 ([1]; LB broth): < 3.60
O=C(Cc1ccccc1)N[C@@H]1C(=O)N2C(C(=O)O)=C(CSc3cccc[n+]3[O-])CS[C@H]12 [DB4-51, 2-((((6R,7R)-2-carboxy-8-oxo-7-(2-phenylacetamido)-5-thia-1-azabicyclo[4.2.0]oct-2-en-3-yl)methyl)thio)pyridine 1-oxide] |  | 7.29 |  |  |  |  | 7.77 |  | 7.82 | 7.42 | 7.60 | 7.70 |  | 4.41 | change in IC50 value depending on Cu status (+Bla K-12 E. coli; +Bla K-12 E. coli, Cu replete vs Cu depleted): less than 4 fold; pIC50 (+Bla K-12 E. coli; Escherichia coli, read-out: IC50 after pre-incubation with β-lactamase, +Bla K-12 E. coli, pre-incubated with β-lactamase): 5.10; change in IC50 value depending on Cu status (pCOM E. coli; pCOM-GFP UTI89 E. coli, Cu replete vs Cu depleted): 10 fold; pIC50 (−Bla K-12 E. coli; Escherichia coli, pre-incubated with β-lactamase, read-out: IC50 after pre-incubation with β-lactamase): 5.05; decrease of IC50 over time ([2]; resistant K-12, over 22 hours): 50%
